Laboratory results as given in article PMC5241706, “Biochemical and Structural Characterization of Selective Allosteric Inhibitors of the Plasmodium falciparum Drug Target, Prolyl-tRNA-synthetase” (ACS Infectious Diseases, 2016).
Read-outs that look alike come from different tables or passages of the source.

Key:
PfProRS [1] = target: T1, PfProRS (Plasmodium falciparum, UniProt Q8I5R7); assay: biochemical; format: biochemical; conditions: for IC50: read-out: Pf ProRS IC50
T1 construct: B2, AA7–746 (minus 6 amino acids, or 99% of the ORF); made in house; host or cells: E. coli BL21(DE3)R3 Rosetta Oxford

[2] = system: Plasmodium falciparum strain 3D7; assay: Plasmodium falciparum growth inhibition, SYBR green fluorescence; format: cell-based
HsProRS = target: T2, HsProRS (Homo sapiens, UniProt P07814); assay: luciferase ATP depletion assay, counter-screen; format: biochemical; conditions: read-out: Percentage inhibition Hs ProRS
T2 construct: made in house
T2 sequence (P07814 1007-1512 limits assumed): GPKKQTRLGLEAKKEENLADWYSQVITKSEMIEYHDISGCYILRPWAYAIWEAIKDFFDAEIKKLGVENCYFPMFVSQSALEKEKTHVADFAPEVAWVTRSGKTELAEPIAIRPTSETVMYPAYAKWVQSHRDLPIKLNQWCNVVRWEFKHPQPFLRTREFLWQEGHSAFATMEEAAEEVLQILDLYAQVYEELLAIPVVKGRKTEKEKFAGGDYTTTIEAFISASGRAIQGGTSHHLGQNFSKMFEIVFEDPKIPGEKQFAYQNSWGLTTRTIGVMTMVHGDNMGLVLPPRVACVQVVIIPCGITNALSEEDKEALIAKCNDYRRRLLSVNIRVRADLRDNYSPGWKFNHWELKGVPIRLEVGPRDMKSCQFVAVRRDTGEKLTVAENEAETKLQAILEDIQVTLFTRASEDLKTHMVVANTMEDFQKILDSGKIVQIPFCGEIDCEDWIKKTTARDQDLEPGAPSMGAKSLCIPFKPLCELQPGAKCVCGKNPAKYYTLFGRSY

PfProRS [3] = target: T1, PfProRS; assay: luciferase ATP depletion assay, HTS format; format: biochemical; conditions: read-out: Percentage inhibition Pf ProRS
[4] = 3D7, growth inhibition, read-out: Pf (3D7) EC50

T1 sequence (Q8I5R7 7-746): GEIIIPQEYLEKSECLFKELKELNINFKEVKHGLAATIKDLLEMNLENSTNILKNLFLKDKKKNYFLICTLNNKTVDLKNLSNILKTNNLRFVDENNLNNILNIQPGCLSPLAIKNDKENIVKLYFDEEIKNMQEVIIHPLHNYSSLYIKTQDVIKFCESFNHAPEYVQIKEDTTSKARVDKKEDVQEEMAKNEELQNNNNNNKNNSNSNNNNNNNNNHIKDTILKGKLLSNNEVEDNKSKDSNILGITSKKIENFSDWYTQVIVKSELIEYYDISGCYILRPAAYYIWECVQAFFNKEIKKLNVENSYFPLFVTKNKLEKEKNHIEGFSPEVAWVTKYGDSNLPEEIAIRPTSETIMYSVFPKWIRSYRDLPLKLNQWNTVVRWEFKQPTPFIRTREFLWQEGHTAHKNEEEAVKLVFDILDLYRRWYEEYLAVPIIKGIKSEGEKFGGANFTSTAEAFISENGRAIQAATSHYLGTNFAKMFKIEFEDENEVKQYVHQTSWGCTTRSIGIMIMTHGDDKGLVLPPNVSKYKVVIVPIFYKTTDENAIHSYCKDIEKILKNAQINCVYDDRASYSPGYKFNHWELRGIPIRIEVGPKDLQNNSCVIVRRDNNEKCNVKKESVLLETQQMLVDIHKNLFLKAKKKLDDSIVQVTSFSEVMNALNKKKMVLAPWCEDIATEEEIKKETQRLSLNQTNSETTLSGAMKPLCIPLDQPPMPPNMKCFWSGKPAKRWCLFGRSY

Compound: Cn1nc(C(F)(F)F)c(-c2ccc(F)cc2)c1N [Compound 2]
- PfProRS activity in words (PfProRS [1]; SAR text to Table 1): inactive
- IC50 (PfProRS [1]): > 50000 nM
- EC50 [2, 4]: 5000 nM

Compound: Cn1nc(C(F)(F)F)c(-c2ccc(F)cc2)c1NC(=O)Nc1ccc(F)cc1F [Compound 3]
- IC50 (PfProRS [1]): 2500 nM
- EC50 [2, 4]: 700 nM

Compound: Cn1nc(C(F)(F)F)c(-c2ccc(F)cc2)c1NC(=O)Nc1cccc(F)c1 [Compound 4]
- IC50 (PfProRS [1]): 8000 nM
- EC50 [2, 4]: 350 nM

Compound: Cn1nc(C(F)(F)F)c(-c2ccccc2CCO)c1NC(=O)Nc1ccc(F)cc1 [Compound 14]
- IC50 (PfProRS [1]): > 50000 nM

Compound: CCn1nc(-c2ccc(C(=O)OC)cc2)nc2c(=O)n(C)c(=O)nc1-2 [MMV306025]
- inhibition at 0.03 µM (HsProRS; at 0.03 μM (MMV306025 series)): 0.3%
- inhibition at 0.06 µM (HsProRS; at 0.06 μM): -0.07%
- inhibition at 0.12 µM (HsProRS; at 0.12 μM (MMV306025 series)): 0.1%
- inhibition at 0.23 µM (HsProRS; at 0.23 μM): 0.67%
- inhibition at 0.47 µM (HsProRS; at 0.47 μM): 4.1%
- inhibition at 0.94 µM (HsProRS; at 0.94 μM): 14.9%
- inhibition at 1.88 µM (HsProRS; at 1.88 μM): 21.6%
- inhibition at 0.03 µM (PfProRS [3]): -0.55%
- inhibition at 0.06 µM (PfProRS [3]): -0.04%
- inhibition at 0.12 µM (PfProRS [3]): 0.62%
- inhibition at 0.23 µM (PfProRS [3]): 4.5%
- inhibition at 0.47 µM (PfProRS [3]): 21.8%
- inhibition at 0.94 µM (PfProRS [3]): 28.4%
- inhibition at 1.88 µM (PfProRS [3]): 30%
- inhibition at 2.5 µM (PfProRS [3]): 72.8%

Compound: OC(c1cc(C(F)(F)F)nc2c(C(F)(F)F)cccc12)C1CCCCN1 (stereo not drawn) [Mefloquine, reference compound]
- EC50 ([2]; P. falciparum 3D7, read-out: potency range (drug control)): 30 to 60 nM

Compound: Cc1ccc(-c2oc(N)c(C#N)c2-c2ccc(C)cc2)cc1 [SJ000368256]
- inhibition at 0.12 µM (HsProRS; at 0.12 μM (30 μM series)): -0.1%
- inhibition at 0.37 µM (HsProRS; at 0.37 μM): 0.01%
- inhibition at 1.46 µM (HsProRS; at 1.46 μM (30 μM series)): -0.15%
- inhibition at 3.33 µM (HsProRS; at 3.33 μM): 0.06%
- inhibition at 10 µM (HsProRS; at 10.00 μM): 0.08%
- inhibition at 30 µM (HsProRS; at 30.00 μM): 0.41%
- inhibition at 0.12 µM (PfProRS [3]): -0.29%
- inhibition at 0.37 µM (PfProRS [3]): -0.09%
- inhibition at 1.46 µM (PfProRS [3]): -0.33%
- inhibition at 3.33 µM (PfProRS [3]): 0.44%
- inhibition at 10 µM (PfProRS [3]): 0.96%
- inhibition at 30 µM (PfProRS [3]): 39.7%
